{"source": "patent US20170209403A1", "about": "“METHOD FOR REGULATING ALDEHYDE DEHYDROGENASE 1” (National Cheng Kung University, priority 2016, published 2017)", "format_in_all_cases": "cell-based, human", "key": {"[1]": {"test_system": "A2780 and CP70 ovarian cancer cells", "assay": "Sphere formation assay", "conditions": "for sphere formation efficiency: control and shALDH1 cells (A2780, CP70, CP70-vector, CP70-shALDH1), 1 μM Thiostrepton or 10 μM DAPT, 10 days", "description": "FIGS. 1A-1F show ALDH1 regulates stemness and tumourigenic ability in ovarian cancer cells. […] A total of 1×10^3 A2780 (upper panel) and CP70 (lower panel) cells were seeded into a 96-well plate to evaluate the cells' sphere formation ability (scale bar=200 μm). DEAB was used to inhibit the reaction of ALDH1 and also served as a negative control. […] The β-actin was used as a protein loading control. The histogram represents the relative fold change of protein expression (right panel). […] A2780-ALDH1 (upper panel) and CP70-shALDH1 (lower panel) cells were seeded into 96-well plates to evaluate their sphere formation ability (scale bar=200 μm).\nFIGS. 2A-2D show ALDH1 regulates stemness and tumourigenic ability through the FoxM1 and Notch1 signalling pathways. […] Representative images show spheres generated from single-cell cultures after 10 days. The lower panel depicts the relative sphere formation ratio (scale bar=200 μm). […] V: vector.\n(§1) Standard sphere formation assays were performed according to Zhang et al. (Zhang, S. et al. Cancer Res., 68, 4311-4320.) with minor modification. The cells (1×10^3) were resuspended in serum-free DMEM/F12 medium supplemented with 5 μg/ml insulin (Sigma), 20 ng/ml human recombinant epidermal growth factor (EGF; Invitrogen, Life Technologies, Carlsbad, Calif.) and 10 ng/ml basic fibroblast growth factor (bFGF; Invitrogen) in ultra-low attachment plates (Corning Costar, Corning, N.Y.). Spheres that arose within 1-2 weeks were counted. Colony diameters >50 μm were counted as a single-positive colony. The middle field was chosen for counting of spheres, and two fields for each plate were counted under a dissecting microscope. For all sphere formation experiments, a minimum of eight wells was run for each condition. All data represent the mean ±SEM of three separate experiments and at least 24 different fields.\n(§2) An Aldefluor® kit (StemCell Technologies) was used to assess ALDH activity in the ovarian cancer cell lines, as previously described (Saw, Y. T. et al. (2012) BMC Cancer, 12, 329.). In brief, 1×10^6 cells were incubated in Aldefluor® assay buffer containing a 1.5 μM ALDH substrate for 30 min at 37° C. Each sample was treated with 50 μM of DEAB, and used as a negative control. Prior to analysis, cells were stained with […] of propidium iodide to evaluate their viability. The fluorescence intensity of the stained cells was analysed using a FACSAria cell sorter Flow Cytometer (BD Biosciences). The reaction with DEAB was used to define the baseline for the assay. The ALDH activity of a sample was determined to be ‘high’ or ‘low’ based on the fluorescence intensity beyond or below the threshold defined by the reaction with DEAB. The cells having high or low ALDH activity are marked “-High” or “-Low” hereafter."}, "[2]": {"test_system": "ES2 cells (ES2-High, ES2-Low)", "assay": "Sphere formation assay", "conditions": "for sphere formation: ES2-High cells, different concentrations of Thiostrepton or DAPT; for decrease of sphere formation: ES2-Low cells, Thiostrepton or DAPT", "description": "(§3) Right panel: relative fold changes of ALDH1 and FoxM1 expression compared with controls. […] Sphere formation in ES2-High cells after treatment with different concentrations of Thiostrepton or DAPT, and the relative fold changes in expression are shown (scale bar=200 μm).\nas §1, §2"}, "[3]": {"test_system": "ALDH1, FoxM1, Notch1, Oct-4 and Nanog expression in A2780 and CP70 cells", "assay": "Western blotting of ALDH1, FoxM1, Notch1 and CSC markers", "conditions": "for ALDH1 expression / FoxM1 expression / Notch1 expression: A2780 and CP70 cells; for ALDH1 expression: 1 μM Thiostrepton or 10 μM DAPT; for FoxM1 expression / Notch1 expression: 1 μM Thiostrepton, 10 μM DAPT, or DEAB"}, "[4]": {"test_system": "ALDH1, FoxM1 and Notch-1 expression in ES2 cells", "assay": "Western blotting of ALDH1, FoxM1 and Notch1", "conditions": "ES2-High cells; for ALDH1 expression: Thiostrepton or DAPT; for FoxM1 expression / Notch1 expression: different concentrations of Thiostrepton or DAPT", "description": "as §3\nThe cells were lysed and then harvested using a cell lifter (Corning Costar). Protein concentrations were determined by Bio-Rad protein assay (Bio-Rad, Hercules, Calif.). Proteins were then separated by 10% sodium dodecyl sulphate-polyacrylamide gel electrophoresis and transferred to polyvinylidene difluoride membranes. Western blotting was performed using the following antibodies at the indicated dilutions: anti-ALDH1 (1:1000; BD Biosciences), anti-Oct4 (1:1000; BD Biosciences), anti-Nanog (1:1000; BD Biosciences), anti-Notch1 (1:1000; Abcam, Cambridge, UK), anti-FoxM1 (1:1000; Santa Cruz Biotechnology, Santa Cruz, Calif.) and anti-beta actin (1:5000; Sigma)."}, "[5]": {"test_system": "A2780 and CP70 ovarian cancer cells", "assay": "MTT cytotoxicity assay (proliferation, doubling time)", "design": "toxicity: dose or concentration left out as unconfirmed", "conditions": "for cell proliferation: A2780 and CP70 derived cells, inhibitor treatment", "description": "The cell lines were cultured in a humidified incubator containing 95% air and 5% CO2 at 37° C. in 96-well flat-bottomed microtiter plates. After 72 h of incubation, the in vitro cytotoxic effects of treatments were determined by MTT assay (at 570 nm)."}, "[6]": {"test_system": "ALDH1, FoxM1 and Notch-1 expression in ES2 cells", "assay": "Western blotting of ALDH1, FoxM1 and Notch1", "conditions": "ES2-Low cells; Thiostrepton or DAPT"}, "[7]": {"test_system": "ALDH1", "assay": "Aldefluor assay of ALDH1 enzyme activity / ALDH1-High cell fraction", "conditions": "A2780-Low and CP70-Low cells; ATRA (10 μM) or paclitaxel (60 ng/ml) for 4 days", "description": "as §2"}}}
{"smiles": "C[C@H](NC(=O)Cc1cc(F)cc(F)c1)C(=O)N[C@H](C(=O)OC(C)(C)C)c1ccccc1", "note": "[DAPT, N-[2S-(3,5-difluorophenyl)acetyl]-L-alanyl-2-phenyl-1,1-dimethylethyl ester-glycine]", "values": [{"measurement": "sphere formation efficiency", "setting": "[1]", "result": "decreased sphere formation efficiency"}, {"measurement": "sphere formation", "setting": "[2]", "result": "decreased sphere formation in ES2-High cells in a dose-dependent manner"}, {"measurement": "decrease of sphere formation", "setting": "[2]", "result": "not observed"}, {"measurement": "FoxM1 expression in FoxM1-overexpressing cells", "setting": "[3]; A2780-FoxM1 cells, immunoblot, DAPT", "result": "failed to attenuate FoxM1 expression"}, {"measurement": "ALDH1 expression", "setting": "[3]; western blotting", "result": "did not affect ALDH1 expression"}, {"measurement": "FoxM1 expression", "setting": "[3]; western blotting", "result": "decreased Notch1 expression as well as FoxM1 expression, but to a lesser extent"}, {"measurement": "Notch1 expression", "setting": "[3]; western blotting", "result": "decreased Notch1 expression"}, {"measurement": "ALDH1 expression", "setting": "[4]", "result": "did not affect ALDH1 expression"}, {"measurement": "FoxM1 expression", "setting": "[4]", "result": "downregulated the expression levels of both FoxM1 and Notch1 in ES2-High cells in a dose-dependent manner"}, {"measurement": "Notch1 expression", "setting": "[4]", "result": "downregulated the expression levels of both FoxM1 and Notch1 in ES2-High cells in a dose-dependent manner"}, {"measurement": "cell proliferation", "setting": "[5]", "result": "did not affect proliferation"}, {"measurement": "downregulation of FoxM1 and Notch1 expression", "setting": "[6]", "result": "not observed"}]}
{"smiles": "CCN(CC)c1ccc(C=O)cc1", "note": "[DEAB, diethylaminobenzaldehyde]", "values": [{"measurement": "sphere formation", "setting": "[1]; ALDH1-High A2780 or CP70 cells, DEAB treatment", "result": "suppressed sphere formation"}, {"measurement": "FoxM1 expression", "setting": "[3]; western blotting", "result": "downregulated"}, {"measurement": "Notch1 expression", "setting": "[3]; western blotting", "result": "downregulated"}, {"measurement": "expression of CSC marker proteins FoxM1, Notch1, Oct 4 and Nanog", "setting": "[3]; ALDH1-High cells, DEAB treatment, western blotting", "result": "inhibited"}, {"measurement": "cell proliferation", "setting": "[5]", "result": "did not affect cell proliferation"}]}
{"smiles": "C=C(NC(=O)C(=C)NC(=O)c1csc(C2=N[C@@H]3c4csc(n4)[C@H]4NC(=O)c5csc(n5)[C@H]([C@](C)(O)[C@@H](C)O)NC(=O)[C@H]5CSC(=N5)/C(=C/C)NC(=O)[C@H]([C@@H](C)O)NC(=O)c5csc(n5)[C@]3(CC2)NC(=O)[C@H](C)NC(=O)C(=C)NC(=O)[C@H](C)NC(=O)[C@H]([C@@H](C)CC)N[C@@H]2C=Cc3c([C@H](C)O)cc(nc3[C@H]2O)C(=O)O[C@@H]4C)n1)C(N)=O", "note": "[Thiostrepton, thiostrepton]", "values": [{"measurement": "sphere formation efficiency", "setting": "[1]", "result": "decreased sphere formation efficiency"}, {"measurement": "sphere formation", "setting": "[2]", "result": "decreased sphere formation in ES2-High cells in a dose-dependent manner"}, {"measurement": "decrease of sphere formation", "setting": "[2]", "result": "not observed"}, {"measurement": "ALDH1 expression", "setting": "[3]; western blotting", "result": "did not affect ALDH1 expression"}, {"measurement": "FoxM1 expression", "setting": "[3]; western blotting", "result": "reduced the expression not only of FoxM1 but also of Notch1"}, {"measurement": "Notch1 expression", "setting": "[3]; western blotting", "result": "reduced the expression not only of FoxM1 but also of Notch1"}, {"measurement": "ALDH1 expression", "setting": "[4]", "result": "did not affect ALDH1 expression"}, {"measurement": "FoxM1 expression", "setting": "[4]", "result": "downregulated the expression levels of both FoxM1 and Notch1 in ES2-High cells in a dose-dependent manner"}, {"measurement": "Notch1 expression", "setting": "[4]", "result": "downregulated the expression levels of both FoxM1 and Notch1 in ES2-High cells in a dose-dependent manner"}, {"measurement": "toxicity", "setting": "[5]; A2780 and CP70-shALDH1 cells, effect not significant", "result": "slight toxicity"}, {"measurement": "downregulation of FoxM1 and Notch1 expression", "setting": "[6]", "result": "not observed"}]}
{"smiles": "CC(=O)O[C@H]1C(=O)[C@@]2(C)[C@H]([C@H](OC(=O)c3ccccc3)[C@]3(O)C[C@H](OC(=O)[C@H](O)[C@@H](NC(=O)c4ccccc4)c4ccccc4)C(C)=C1C3(C)C)[C@]1(OC(C)=O)CO[C@@H]1C[C@@H]2O", "note": "[paclitaxel]", "values": [{"measurement": "proportion of ALDH1-High cells", "setting": "[7]", "result": "increased proportion of ALDH1-High cells"}]}
